Laboratory results reported in ChEMBL document CHEMBL2321749, “Incorporation of rapid thermodynamic data in fragment-based drug discovery” (J Med Chem, 2013).
pKd: −log10 of the molar value.

What was measured:
Steroid Delta-isomerase [1] = molecular target: T1, Steroid Delta-isomerase (Pseudomonas putida, UniProt P07445); experiment: Binding affinity to Pseudomonas putida KSI by isothermal titration calorimetry
T1 sequence (P07445 whole entry): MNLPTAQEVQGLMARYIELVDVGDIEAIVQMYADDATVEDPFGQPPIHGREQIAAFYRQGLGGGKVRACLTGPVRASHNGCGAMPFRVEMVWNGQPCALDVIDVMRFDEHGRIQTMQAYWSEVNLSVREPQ

Steroid Delta-isomerase [2] = molecular target: T1, Steroid Delta-isomerase; experiment: Binding affinity to Pseudomonas putida KSI by surface plasmon resonance analysis
[3] = molecular target: T2, Steroid Delta-isomerase (Pseudomonas putida) (UniProt P07445); experiment: Ratio of KD for Pseudomonas putida KSI by surface plasmon resonance analysis to KD for Pseudomonas putida KSI by surface plasmon resonance analysis
T2 sequence (whole entry): T1 sequence (P07445 whole entry)

How did the pKd (Steroid Delta-isomerase [1]) turn out when NC(=O)/C=C/c1cccc(C(F)(F)F)c1 was run?
Its pKd is 4.30.

How did the pKd (Steroid Delta-isomerase [1]) turn out when Cc1nnc2ccc(N3CCCC3)nn12 was run?
The pKd was 4.66.

With NC(=O)Nc1cccc(C(F)(F)F)c1 as the compound, how does the pKd (Steroid Delta-isomerase [1]) read?
Its pKd is 4.34.

How did the pKd (Steroid Delta-isomerase [1]) turn out when Cn1cc(C(N)=O)c2ccccc21 was run?
The pKd was 4.20.

What does the source list for C[C@H](CCC(=O)O)[C@H]1CC[C@H]2[C@@H]3CC[C@@H]4C[C@H](O)CC[C@]4(C)[C@H]3C[C@H](O)[C@]12C [DEOXYCHOLIC ACID]?
pKd (Steroid Delta-isomerase [2]): 4.80; pKd (Steroid Delta-isomerase [1]): 4.80

With CN1CCC2(C)c3cc(O)ccc3N(C)C12 (stereo not drawn) as the compound, how does the Ratio [3] read?
Its Ratio is 1.8.

And the pKd (Steroid Delta-isomerase [1])?
Its pKd is 3.74.
